From patent EP0628539B1, “Polyepoxysuccinic acid derivatives and their use for the control of scale formation and corrosion in aqueous systems” (BetzDearborn Europe, Inc., priority 1993, dated 1994)

Experiments:
[1] = Static calcium carbonate % inhibition evaluation (EDTA titration of filtrate calcium); conditions: 1106 ppm Ca as CaCO3, 1160 ppm CO3 as CaCO3, pH = 9.0, Temp. = 70°C, Duration = 17 hours
Description: Table II summarizes the static calcium carbonate inhibition testing of the compounds of the present invention compared to several prior art calcium carbonate control agents. The tests were performed by adding the treatment solution (sample) to a carbonate stock solution of the described conditions.
A calcium stock solution was then added and the mixture was incubated for 17 hours at 70°C. All treatments were adjusted to pH 9.0 prior to use and the treatment weights, expressed as the sodium salts, accounted for the presence of disodium tartrate by-product. After cooling, a measured portion of the mixture was filtered and the filtrate pH adjusted to less than 1 with hydrochloric acid. The filtrate was then diluted and pH adjusted to 12 with sodium hydroxide. A calcium indicator, murexide, was then added and the solution titrated with a known concentration of ethylenediaminetetraacetic acid (EDTA). From titrations for the treated, stock and control solutions, the percent inhibition was calculated as follows: % Inhibition =(mls EDTA(treated) - mls EDTA(control))/(mls EDTA(stock) - mls EDTA(control))x 100 [formula]

[2] = Beaker Corrosion Test Apparatus (BCTA): coupon and probe weight loss, electrochemical corrosion rate; conditions: 25 ppm, base treatment 1 ppm HEDP, 10 ppm acrylic copolymer, 15 ppm molybdate (PESA: no HEDP), pH 8.4, 120°F, 40 hours
Description: The corrosion inhibition activity of the present invention was evaluated with a Beaker Corrosion Test Apparatus (BCTA). […] The test solution volume is 1.9 liters.
Electrochemical corrosion rate data (EC) are obtained during the test from potentiodynamic polarization resistance measurements. Additional corrosion data is obtained from the coupon and the electrochemical probe by standard weight loss measurement techniques. All tests were conducted under the following conditions unless otherwise noted:
Under these conditions, the test water is supersaturated with respect to calcium carbonate. […] Therefore, all tests were conducted with a base treatment to inhibit the precipitation of calcium carbonate under the test conditions. The blank runs reported for all tests include the addition of the base treatment.
In all tests, the blank corrosion rates are expressed in mils per year (mpy). The corrosion rates for the inhibitor compounds are expressed as a reduction in the corrosion rate relative to the blank calculated according to the following equation: % Corrosion Inhibition =((mpy Blank - mpy Treated))/(mpy Blank)x 100 [formula]
All tests were conducted as parts per million of the inhibitor molecule as the sodium salt. Compound αHCA(12) was evaluated as ppm of the free acid.
A sample of poly[epoxysuccinic acid]

Row | SMILES | Static Calcium Carbonate % Inhibition ([1]; 5 ppm Actives) | Static Calcium Carbonate % Inhibition ([1]; 10 ppm Actives) | Percent Corrosion Inhibition, Coupon ([2]; coupon weight loss relative to blank (62.4 mpy)) | Percent Corrosion Inhibition, EC (avg) ([2]; electrochemical corrosion rate relative to blank (47.1 mpy)) | Percent Corrosion Inhibition, Probe ([2]; probe weight loss relative to blank (58.9 mpy))
1 | CC(O)(P(=O)(O)O)P(=O)(O)O [HEDP, 1-hydroxyethylidene-1,1-diphosphonic acid] | 73.1% | 71.3% | – | – | –
2 | O=C(O)CCC(CC(=O)O)(C(=O)O)P(=O)(O)O (stereo not drawn) [PBSAM, 2-phosphonobutane - 1,2,4-tricarboxylic acid] | 67.5% | 76.0% | – | – | –
3 | O=C([O-])C(O)[C@H](NCCS(=O)(=O)[O-])C(=O)[O-].[Na+].[Na+].[Na+] (stereo partly drawn) [αHCA(9), aspartic acid, 3-hydroxy, N-[2-ethanesulfonic acid]-trisodium salt] | 5.1% | 3.7% | 29.3% | 69.4% | 66.2%
